What all share (format): cell-based
One assay concerns the target T1, 5-HT2C receptor (Homo sapiens, UniProt P28335).
T1 construct: host or cells: U2OS
Put plainly: Human 5-HT2C functional assay (beta-arrestin2 recruitment, U2OS_HTR2C_β-Arrestin cells). Conditions: for EC50: potency in functional assay, beta-arrestin2 recruitment, 1.5 h incubation; for Emax: read-out: % efficacy (5-HT2C), relative efficacy vs 10 μM 5-HT or maximal 5-HT effect (100%); for % efficacy (5-HT2C): relative efficacy vs 10 μM 5-HT or maximal 5-HT effect (100%). Here is the method: 1. Human 5-HT2C Functional Assay
The functional activity of compounds of formula I was assayed by incubation with U2OS_HTR2C_β-Arrestin cells (DiscoverX, 93-0289C3) to induce beta-arrestin2 recruitment to the 5-HT2C receptor. The agonist-induced recruitment and proximity of the receptor and beta-arrestin2 leads to complementation and formation of active β-galactosidase. The enzyme complementation results in enzyme activity, which is measured following the termination of the agonist incubation using DiscoveRx's detection reagent, which contains a chemiluminescent substrate which produces a high intensity signal. Cells were plated and a medium-change to a 1% serum containing medium was performed 24 h later. The next day, test compounds were added and incubated for 1.5 h before addition of detection reagent.
The response produced was measured and compared with the response produced by 10 [mu]M 5-HT or the maximal effect induced by 5-HT (defined as 100%) to which it was expressed as a percentage response (relative efficacy).
In general terms: Recruitment of arrestin is a read-out of receptor activation apart from second messengers.

The target of the next assay is T2, human 5-HT2A receptor (Homo sapiens, UniProt P28223).
T2 construct: expressed in transfected cells; host or cells: CHO-K1
Put plainly: Human 5-HT2A functional assay (calcium mobilisation in CHO-K1 cells). Conditions: for EC50: potency in functional assay, agonism (first addition), calcium mobilisation; for Emax: CHO-K1, read-out: % efficacy (5-HT2A); for Selectivity (based on agonism) EC50 5-HT2A/EC50 5-HT2C: ratio EC50 5-HT2A/EC50 5-HT2C. Here is the method:
2. Human 5-HT2A Functional Assay
Cells were seeded into sterile black 384-well plates with clear bottom at 25,000 cells/well in a volume of 25 μl and grown for 5-6 hours at 37° C., in 5% CO2 in tissue culture medium (“Ultra CHO” by LONZA), containing 1% dialysed FCS and 50 μg/ml gentamicin (Invitrogen). After this incubation, medium was replaced by a serum free version of the same tissue culture medium followed by incubation overnight at 37° C. and in 5% CO2. Cells were then loaded with a fluorescent calcium-sensitive dye in the presence of 0.07% probenecid for an hour at 37° C., according to the manufacturer's protocol (Ca5-Assay Kit, Molecular Devices), followed by an additional 60 min incubation at room temperature. […] The relative efficacy of the compounds was calculated as a percentage of the maximal effect induced by serotonin alone (defined as 100%). To determine EC50/IC50 values, concentration-response curves were fitted using a four-parameter logistic equation (IDBS Biobook™). Kb values were calculated from IC50 values, according to Cheng & Prusoff.
On the technique in general: Calcium assays in cells follow changes in intracellular calcium, usually with a dye or a luminescent sensor.

A further assay deals with T3, human 5-HT2B receptor (Homo sapiens, UniProt P41595).
T3 construct: expressed in transfected cells; host or cells: CHO-FlpIn
The assay can be described thus: Human 5-HT2B functional assay (calcium mobilisation in CHO-FlpIn cells). Particulars: for EC50: potency in functional assay, agonism (first addition), calcium mobilisation; for Selectivity (based on agonism) EC50 5-HT2B/EC50 5-HT2C: ratio EC50 5-HT2B/EC50 5-HT2C; for Emax: read-out: % efficacy (5-HT2B), relative efficacy vs maximal effect of serotonin alone (100%). On the procedure: 3. Human 5-HT2B Functional Assay
Cells were seeded into sterile black 384-well plates with clear bottom at 30,000 cells/well in a volume of 25 μl and grown overnight at 37° C., in 5% CO2 in tissue culture medium (“CHO-S-SFM II” by Invitrogen), containing 1% dialysed FCS and 50 μg/ml gentamicin (Invitrogen). On the next morning, medium was replaced by a serum free version of the same tissue culture medium for a further incubation for 4 hours at 37° C. and in 5% CO2. Cells were then loaded with a fluorescent calcium-sensitive dye in the presence of 0.07% probenecid for an hour at 37° C., according to the manufacturer's protocol (Ca5-Assay Kit, Molecular Devices), followed by an additional 60 min incubation at room temperature. Serial compound dilutions (final concentrations of 10^−10 to 10^−5M, prepared in HBSS+50 mM HEPES) were first added to the cells alone (“first addition” to assess agonism on the 5-HT2B receptor), then after 8 min, serotonin was added to the same wells at a final concentration of 10^−8 M (“second addition” to see potential antagonistic effect) and the maximal calcium response was determined using a FLIPR® Tetra instrument (Molecular Devices) in each of the two steps. The relative efficacy of the compounds was calculated as a percentage of the maximal effect induced by serotonin alone (defined as 100%). To determine EC50/IC50 values, concentration-response curves were fitted using a four-parameter logistic equation (IDBS Biobook™). Kb values were calculated from IC50 values, according to Cheng & Prusoff.

The text below walks through data of US9540376B2, “Hexahydrodiazepinoquinolines carrying a substituted alkyl radical” (priority 2014, dated 2017).

T1 sequence (P28335 33-458): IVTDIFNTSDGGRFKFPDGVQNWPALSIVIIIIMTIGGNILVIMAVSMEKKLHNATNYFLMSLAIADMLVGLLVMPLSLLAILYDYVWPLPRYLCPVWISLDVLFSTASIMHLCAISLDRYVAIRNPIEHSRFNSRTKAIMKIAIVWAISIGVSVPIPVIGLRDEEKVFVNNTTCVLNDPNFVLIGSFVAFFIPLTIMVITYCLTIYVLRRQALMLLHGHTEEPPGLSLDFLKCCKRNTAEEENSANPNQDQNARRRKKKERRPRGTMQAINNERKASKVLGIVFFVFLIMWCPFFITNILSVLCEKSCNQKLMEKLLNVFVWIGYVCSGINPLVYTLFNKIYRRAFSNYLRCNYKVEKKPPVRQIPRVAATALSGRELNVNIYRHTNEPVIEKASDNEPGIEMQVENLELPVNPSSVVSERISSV
T1 sequence (P32121 whole entry partner): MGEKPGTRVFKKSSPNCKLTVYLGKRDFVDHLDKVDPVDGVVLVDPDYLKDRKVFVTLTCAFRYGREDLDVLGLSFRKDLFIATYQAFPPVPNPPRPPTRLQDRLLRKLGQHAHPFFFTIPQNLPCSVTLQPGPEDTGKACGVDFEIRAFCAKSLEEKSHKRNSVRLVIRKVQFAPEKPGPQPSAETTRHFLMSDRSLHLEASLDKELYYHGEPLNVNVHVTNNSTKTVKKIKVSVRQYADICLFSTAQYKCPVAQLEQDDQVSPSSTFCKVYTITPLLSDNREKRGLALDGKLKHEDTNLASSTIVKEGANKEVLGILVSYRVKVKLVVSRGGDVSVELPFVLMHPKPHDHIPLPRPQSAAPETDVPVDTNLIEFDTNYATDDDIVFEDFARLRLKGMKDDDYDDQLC
T3 sequence (P41595 whole entry): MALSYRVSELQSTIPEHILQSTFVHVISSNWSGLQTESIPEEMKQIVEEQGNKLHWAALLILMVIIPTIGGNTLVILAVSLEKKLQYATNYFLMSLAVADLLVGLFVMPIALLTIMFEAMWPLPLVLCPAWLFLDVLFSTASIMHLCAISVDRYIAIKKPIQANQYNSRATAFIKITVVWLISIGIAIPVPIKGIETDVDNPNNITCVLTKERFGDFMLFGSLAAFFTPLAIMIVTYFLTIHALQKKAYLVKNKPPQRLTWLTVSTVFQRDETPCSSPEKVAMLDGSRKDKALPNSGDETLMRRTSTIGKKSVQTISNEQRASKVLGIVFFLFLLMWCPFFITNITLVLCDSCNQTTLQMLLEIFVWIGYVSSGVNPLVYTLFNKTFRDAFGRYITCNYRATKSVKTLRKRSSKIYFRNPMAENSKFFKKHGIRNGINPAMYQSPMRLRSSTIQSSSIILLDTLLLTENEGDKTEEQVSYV
T2 sequence (P28223 whole entry): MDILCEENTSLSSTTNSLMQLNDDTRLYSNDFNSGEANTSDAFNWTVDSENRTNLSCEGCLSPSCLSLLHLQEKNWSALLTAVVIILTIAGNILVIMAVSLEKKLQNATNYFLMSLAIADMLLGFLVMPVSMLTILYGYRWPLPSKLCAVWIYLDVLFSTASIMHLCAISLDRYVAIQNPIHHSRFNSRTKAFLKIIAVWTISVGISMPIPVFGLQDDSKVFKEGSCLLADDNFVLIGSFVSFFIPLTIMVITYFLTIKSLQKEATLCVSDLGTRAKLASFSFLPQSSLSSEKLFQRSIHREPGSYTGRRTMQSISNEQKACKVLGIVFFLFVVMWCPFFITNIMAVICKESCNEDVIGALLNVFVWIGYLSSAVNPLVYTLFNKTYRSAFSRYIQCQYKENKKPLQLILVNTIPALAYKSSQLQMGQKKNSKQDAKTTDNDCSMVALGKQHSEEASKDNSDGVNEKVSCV

For orientation: EC50 means the midpoint of the concentration-response curve. Take `CC1CNCc2cccc3c2N1CCC3C(F)(F)F` (single isomer, unassigned) [Isomer 4.A, 4-methyl-8-(trifluoromethyl)-2,3,4,6,7,8-hexahydro-1H-[1,4]diazepino[6,7,1-ij]quinoline]: the values for the EC50 at 5-HT2C receptor, at human 5-HT2A receptor and on human 5-HT2B receptor were < 0.02 µM, > 10 µM and > 10 µM, respectively. Moreover, the Emax at 5-HT2C receptor is 101%.

With `CC1CNCc2cccc3c2N1CCC3C(F)(F)F` (single isomer, unassigned) [Isomer 4.B, 4-methyl-8-(trifluoromethyl)-2,3,4,6,7,8-hexahydro-1H-[1,4]diazepino[6,7,1-ij]quinoline], the EC50 at 5-HT2C receptor was 0.02 to 0.2 µM; at human 5-HT2A receptor (listed as 4.B), > 10 µM; at human 5-HT2B receptor, > 10 µM. On 5-HT2C receptor (listed as 4.B), the “% efficacy (5-HT2C)” value amounted to 87%.

Turning to `CC1CNCc2cccc3c2N1CCC3C(F)(F)F` (single isomer, unassigned) [Isomer 4.C, 4-methyl-8-(trifluoromethyl)-2,3,4,6,7,8-hexahydro-1H-[1,4]diazepino[6,7,1-ij]quinoline], the EC50 at 5-HT2C receptor is < 0.02 µM. The “% efficacy (5-HT2C)” value at 5-HT2C receptor (listed as 4.C) amounted to 101%. In addition, at human 5-HT2A receptor, the Emax was determined as 24%, the EC50 lay within 0.02 to 0.2 µM and the “Selectivity (based on agonism) EC50 5-HT2A/EC50 5-HT2C” value came out at 2. Also, on human 5-HT2B receptor, the EC50 is 0.02 to 0.2 µM and the Emax came to 44%. Moreover, the “Selectivity (based on agonism) EC50 5-HT2B/EC50 5-HT2C” value on human 5-HT2B receptor (listed as 4.C) came to 12.

On to `CC1CNCc2cccc3c2N1CCC3C(F)(F)F` (single isomer, unassigned) [Isomer 4.D, 4-methyl-8-(trifluoromethyl)-2,3,4,6,7,8-hexahydro-1H-[1,4]diazepino[6,7,1-ij]quinoline], for which the EC50 on 5-HT2C receptor was 0.2 to 1 µM; on human 5-HT2A receptor (listed as 4.D), > 10 µM; on human 5-HT2B receptor, 0.2 to 1 µM. The “% efficacy (5-HT2C)” value at 5-HT2C receptor (listed as 4.D) was determined as 86%. At human 5-HT2B receptor (listed as 4.D), the “Selectivity (based on agonism) EC50 5-HT2B/EC50 5-HT2C” value came out at 2. Besides, the “% efficacy (5-HT2B)” value on human 5-HT2B receptor (relative efficacy vs maximal effect of serotonin alone (100%)) is 30%.

Consider `CC1CNCc2cccc3c2N1CCC3C(F)F` (single isomer, unassigned) [Isomer 5.A, 8-(difluoromethyl)-4-methyl-2,3,4,6,7,8-hexahydro-1H-[1,4]diazepino[6,7,1-ij]quinoline], for which, at 5-HT2C receptor, the EC50 was < 0.02 µM. Moreover, on 5-HT2C receptor (listed as 5.A), the “% efficacy (5-HT2C)” value came out at 109%. On human 5-HT2A receptor, the Emax was determined as 21%, the EC50 was < 0.02 µM and the “Selectivity (based on agonism) EC50 5-HT2A/EC50 5-HT2C” value is on record as 0.5. At human 5-HT2B receptor, the EC50 was in the range of 0.2 to 1 µM, the “Selectivity (based on agonism) EC50 5-HT2B/EC50 5-HT2C” value was found to be 20 and the Emax turned out to be 36%.

For `CC1CNCc2cccc3c2N1CCC3C(F)F` (single isomer, unassigned) [Isomer 5.B, 8-(difluoromethyl)-4-methyl-2,3,4,6,7,8-hexahydro-1H-[1,4]diazepino[6,7,1-ij]quinoline], the EC50 at 5-HT2C receptor was 0.02 to 0.2 µM; on human 5-HT2A receptor, > 10 µM; on human 5-HT2B receptor it was > 10 µM. Besides, the “% efficacy (5-HT2C)” value on 5-HT2C receptor (listed as 5.B) turned out to be 110%.

On to `CC1CNCc2cccc3c2N1CCC3C(F)F` (single isomer, unassigned) [Isomer 5.C, 8-(difluoromethyl)-4-methyl-2,3,4,6,7,8-hexahydro-1H-[1,4]diazepino[6,7,1-ij]quinoline], for which the EC50 on 5-HT2C receptor was 0.2 to 1 µM; on human 5-HT2A receptor (listed as 5.C), > 10 µM; on human 5-HT2B receptor it was > 10 µM. Besides, the “% efficacy (5-HT2C)” value at 5-HT2C receptor (listed as 5.C) is recorded as 89%.

Consider `CC1CNCc2cccc3c2N1CCC3C(F)F` (single isomer, unassigned) [Isomer 5.D, 8-(difluoromethyl)-4-methyl-2,3,4,6,7,8-hexahydro-1H-[1,4]diazepino[6,7,1-ij]quinoline], for which the results for the EC50 on 5-HT2C receptor, at human 5-HT2A receptor (listed as 5.D) and on human 5-HT2B receptor were 0.2 to 1 µM, > 10 µM and > 10 µM, respectively. Also, the “% efficacy (5-HT2C)” value at 5-HT2C receptor (listed as 5.D) stood at 84%.

Consider `CC1CNCc2cccc3c2N1CCC3C(F)(F)F` (centres unmarked) [Example 4, 4-Methyl-8-(trifluoromethyl)-2,3,4,6,7,8-hexahydro-1H-[1,4]diazepino[6,7,1-ij]quinoline], for which the EC50 at 5-HT2C receptor was 0.02 to 0.2 µM; on human 5-HT2A receptor, > 10 µM; at human 5-HT2B receptor, > 10 µM. For the same compound, the Emax on 5-HT2C receptor is 104%.

For the compound `CC1CNCc2cccc3c2N1CCC3C(F)F` (centres unmarked) [Example 5, 8-(Difluoromethyl)-4-methyl-2,3,4,6,7,8-hexahydro-1H-[1,4]diazepino[6,7,1-ij]quinoline], the EC50 at 5-HT2C receptor is 0.02 to 0.2 µM; on human 5-HT2A receptor, > 10 µM; at human 5-HT2B receptor, > 10 µM. The Emax on 5-HT2C receptor came out at 95%.

For the compound `CC1CNCc2cccc3c2N1CCC3CF` (centres unmarked) [Example 7, 8-(Fluoromethyl)-4-methyl-2,3,4,6,7,8-hexahydro-1H-[1,4]diazepino[6,7,1-ij]quinoline], the EC50 at 5-HT2C receptor was 0.02 to 0.2 µM; on human 5-HT2A receptor it was > 10 µM; at human 5-HT2B receptor, > 10 µM. For the same compound, the Emax at 5-HT2C receptor worked out at 107%.

With `CCOCC1CCN2c3c(cccc31)CNCC2C` (centres unmarked) [Example 8, 8-(Ethoxymethyl)-4-methyl-2,3,4,6,7,8-hexahydro-1H-[1,4]diazepino[6,7,1-ij]quinoline], the 50% effective concentration (EC50) at 5-HT2C receptor was 0.2 to 1 µM; on human 5-HT2A receptor it was > 10 µM; at human 5-HT2B receptor, > 10 µM. Moreover, at 5-HT2C receptor, the Emax worked out at 93%.

In the case of `COCC1CCN2c3c(cccc31)CNCC2C` (centres unmarked) [Example 9, 8-(Methoxymethyl)-4-methyl-2,3,4,6,7,8-hexahydro-1H-[1,4]diazepino[6,7,1-ij]quinoline], the EC50 on 5-HT2C receptor was 0.2 to 1 µM; at human 5-HT2A receptor, > 10 µM; at human 5-HT2B receptor, > 10 µM. Moreover, the Emax on 5-HT2C receptor amounted to 82%.
